Patent publication US20180235221A1 (priority 2015, published 2018)
Read-outs that look alike come from different tables or passages of the source.

Tested on: Qol resistant Pyricularia oryzae isolate (1328)
Type: cell-based
Conditions: single active compound, MTP, 405 nm, 7 days after inoculation

SMILES | Observed efficacy (0.063 ppm) | Observed efficacy (0.25 ppm) | Observed efficacy (0.016 ppm)
CNC(=O)C(=N/OC)/C(C)=C\COc1ccn(-c2ccc(Cl)cc2)n1 [Compound I-1, (Z,2E)-5-[1-(4-chlorophenyl)pyrazol-3-yl]oxy-2-methoxyimino-N,3-dimethyl-pent-3-enamide] | 1% | 65% | 
CNC(=O)C(=N/OC)/C(C)=C\COc1ccn(-c2ccc(Cl)cc2Cl)n1 [Compound I-3, (Z,2E)-5-[1-(2,4-dichlorophenyl)pyrazol-3-yl]oxy-2-methoxyimino-N,3-dimethyl-pent-3-en-amide] | 2% | 54% | 
Cn1nnn(-c2cccc(Cl)c2COc2ccn(-c3ccc(Cl)cc3)n2)c1=O [II-1, 1-[3-chloro-2[[1-(4-chlorophenyl)-1H-pyrazol-3-yl]oxymethyl]phenyl]-4-methyl-tetrazol-5-one] |  |  | 0%
Cn1nnn(-c2cccc(Br)c2COc2ccn(-c3ccc(Cl)cc3)n2)c1=O [II-2, 1-[3-bromo-2-[[1-(4-chlorophenyl)pyrazol-3-yl]oxymethyl]phenyl]-4-methyl-tetrazol-5-one] |  |  | 2%
Cc1cccc(-n2nnn(C)c2=O)c1COc1ccn(-c2ccc(Cl)cc2)n1 [II-3, 1-[2-[[1-(4-chlorophenyl)pyrazol-3-yl]oxymethyl]-3-methyl-phenyl]-4-methyl-tetrazol-5-one] |  |  | 44%
Cn1nnn(-c2cccc(F)c2COc2ccn(-c3ccc(Cl)cc3)n2)c1=O [II-4, 1-[2-[[1-(4-chlorophenyl)pyrazol-3-yl]oxymethyl]-3-fluoro-phenyl]-4-methyl-tetrazol-5-one] | 1% |  | 
Cn1nnn(-c2cccc(F)c2COc2ccn(-c3ccc(Cl)cc3Cl)n2)c1=O [II-5, 1-[2-[[1-(2,4-dichlorophenyl)pyrazol-3-yl]oxymethyl]-3-fluoro-phenyl]-4-methyl-tetrazol-5-one] |  | 44% | 
CC(=NOCc1c(C)cccc1-n1nnn(C)c1=O)c1cccc(C(F)(F)F)c1 [II-11, -methyl-4-[3-methyl-2-[[1-[3-(trifluoromethyl)-phenyl]-ethylideneamino]oxymethyl]phenyl]tetrazol-5-one] | 2% |  | 
